Test system: cytokines and ISGs (ISG15, MX1, OAS1)
Assay: Phase 1 single oral dose pharmacodynamics (serum cytokines, whole blood ISGs) in healthy adults
Format: in vivo, human
Description: IFN-α was assessed by an enzyme-linked immunosorbent assay; 13 other cytokines (granulocyte colony stimulating factor [GCSF], granulocyte macrophage colony stimulating factor [GMCSF], IFN-γ, IFN-γ-induced protein 10 [IP-10], interleukin [IL] 1β, IL-1 receptor antagonist [IL-1 RA], IL-10, IL-12 subunit P40, IL-6, IL-8, macrophage inflammatory protein 1β [MIP-1β], monocyte chemotactic protein 1 [MCP-1], and tumour necrosis factor [TNF]) were analysed by the appropriate Luminex assays. ISG expression analysis was conducted for three genes, ISG15, MX1 and OAS1 using quantitative polymerase chain reaction. Descriptive statistics were used to summarise PD parameters over time, and relative fold-changes from baseline values were calculated. Serum levels of IFN-α were measured by ELISA. Serum levels of IP-10, IFN-γ, TNF-α, IL-12 (subunit P40), IL-6, IL-1β, IL-1RA, IL-18, MCP-1, MIP-1β, G-CSF, GM-CSF, IL-10, IL-15 were measured by Luminex xMAP technology. The LLOQ for IFN-α was determined at 12.5 pg/mL and at 25 pg/mL for all other cytokines measured. Fold changes for each of the cytokines were calculated compared to predose values or LLOQ-1 values if predose values were below LLOQ. IFN-stimulated gene (ISG) expression analysis was conducted for 3 genes, ISG15, MX1, and OAS1, using quantitative polymerase chain reaction (qPCR) on collected whole blood samples. For the ISGs, relative fold changes from baseline were calculated according to the delta delta Cycle threshold (Ct) method (2^[Delta Delta Ct]). Assessments were done for Part 1 predose and postdose: 1.5 hours, 6 hours, 12 hours (Day 1), 24 hours (day 2), 48 hours (Day 3), 96 hours (Day 5), follow-up Week 2. For the Part 2, assessments were done predose and post the first and fourth dose: 2 hours, 4 hours, 12 hours, 24 hours, 48 hours, 96 hours and one week follow-up; and post the second and third doses: 12 hours and 48 hours.

[1] = single dose 0.6 mg, 12 hours post dosing

With CCCCOc1nc(N)c2[nH]cc(Cc3ccc(CN4CCCC4)cc3)c2n1 [Compound 4] the “number of the 14 cytokines evaluated that increased ≥2-fold versus baseline (IFN-α, IP-10, IL-1 RA, MCP-1, IL-6)” value (single dose) was 5, the “time within which cytokine levels and ISG expression peaked” value (single dose) was 12 to 24 h and the “induction of ISGs or cytokines” value (single dose 0.2 mg) was “No relevant induction of ISGs or cytokines”. The “participants with ≥2 relative fold increase in ISG15 expression from baseline in the first 96 hours” value (single dose 0.2 mg fasted) was 0 n (%), the “participants with ≥2 relative fold increase in MX1 expression from baseline in the first 96 hours” value (single dose 0.2 mg fasted) was 1 (20.0%) n (%) and the “participants with ≥2 relative fold increase in OAS1 expression from baseline in the first 96 hours” value (single dose 0.2 mg fasted) was 0 n (%). The “subjects with ≥2-fold change from baseline in GCSF within 96 hours” value (single dose 0.2 mg fasted) was 0 n (%), the “subjects with ≥2-fold change from baseline in GMCSF within 96 hours” value (single dose 0.2 mg fasted) was 0 n (%) and the “subjects with ≥2-fold change from baseline in IFN-α within 96 hours” value (single dose 0.2 mg fasted) was 0 n (%). The “subjects with ≥2-fold change from baseline in IFN-γ within 96 hours” value (single dose 0.2 mg fasted) was 0 n (%), the “subjects with ≥2-fold change from baseline in IL-1RA within 96 hours” value (single dose 0.2 mg fasted) was 0 n (%) and the “subjects with ≥2-fold change from baseline in IL-1β within 96 hours” value (single dose 0.2 mg fasted) was 0 n (%). For the same compound, the “subjects with ≥2-fold change from baseline in IL-6 within 96 hours” value (single dose 0.2 mg fasted) was 1 (20.0%) n (%), the “subjects with ≥2-fold change from baseline in IL-8 within 96 hours” value (single dose 0.2 mg fasted) was 0 n (%) and the “subjects with ≥2-fold change from baseline in IL-10 within 96 hours” value (single dose 0.2 mg fasted) was 0 n (%). The “subjects with ≥2-fold change from baseline in IL-12 subunit P40 within 96 hours” value (single dose 0.2 mg fasted) was 0 n (%), the “subjects with ≥2-fold change from baseline in IP-10 within 96 hours” value (single dose 0.2 mg fasted) was 0 n (%) and the “subjects with ≥2-fold change from baseline in MCP-1 within 96 hours” value (single dose 0.2 mg fasted) was 0 n (%). For the same compound, the “subjects with ≥2-fold change from baseline in MIP-1β within 96 hours” value (single dose 0.2 mg fasted) was 0 n (%), the “subjects with ≥2-fold change from baseline in TNF-α within 96 hours” value (single dose 0.2 mg fasted) was 0 n (%) and the “treated subjects with ≥2-fold increase from baseline for all 3 ISGs within the first 96 hours” value (“treated subjects with ≥2-fold increase” for short) (single dose 0.6 mg) was “Five of 6”. The “participants with ≥2 relative fold increase in ISG15 expression from baseline in the first 96 hours” value (single dose 0.6 mg fasted) was 5 (83.3%) n (%), the “participants with ≥2 relative fold increase in MX1 expression from baseline in the first 96 hours” value (single dose 0.6 mg fasted) was 5 (83.3%) n (%) and the “participants with ≥2 relative fold increase in OAS1 expression from baseline in the first 96 hours” value (single dose 0.6 mg fasted) was 5 (83.3%) n (%). For the same compound, the “subjects with ≥2-fold change from baseline in GCSF within 96 hours” value (single dose 0.6 mg fasted) was 1 (16.7%) n (%), the “subjects with ≥2-fold change from baseline in GMCSF within 96 hours” value (single dose 0.6 mg fasted) was 0 n (%) and the “subjects with ≥2-fold change from baseline in IFN-α within 96 hours” value (single dose 0.6 mg fasted) was 0 n (%). For the same compound, the “subjects with ≥2-fold change from baseline in IFN-γ within 96 hours” value (single dose 0.6 mg fasted) was 0 n (%), the “subjects with ≥2-fold change from baseline in IL-1RA within 96 hours” value (single dose 0.6 mg fasted) was 0 n (%) and the “subjects with ≥2-fold change from baseline in IL-1β within 96 hours” value (single dose 0.6 mg fasted) was 0 n (%). The “subjects with ≥2-fold change from baseline in IL-6 within 96 hours” value (single dose 0.6 mg fasted) was 0 n (%), the “subjects with ≥2-fold change from baseline in IL-8 within 96 hours” value (single dose 0.6 mg fasted) was 0 n (%) and the “subjects with ≥2-fold change from baseline in IL-10 within 96 hours” value (single dose 0.6 mg fasted) was 0 n (%). For the same compound, the “subjects with ≥2-fold change from baseline in IL-12 subunit P40 within 96 hours” value (single dose 0.6 mg fasted) was 0 n (%), the “subjects with ≥2-fold change from baseline in MIP-1β within 96 hours” value (single dose 0.6 mg fasted) was 0 n (%) and the “subjects with ≥2-fold change from baseline in TNF-α within 96 hours” value (single dose 0.6 mg fasted) was 0 n (%). For the same compound, the “maximum concentration of IP-10” value [1] was 1,322.0 pg/mL, the “maximum concentration of MCP-1” value [1] was 878.2 pg/mL and the “increased expression of cytokines and ISGs, fed versus fasted state” value (single dose 1.25 mg) was “less frequently observed in the 1.25 mg fed state than in the fasted state”. For the same compound, the “treated subjects with ≥2-fold increase” value (single dose 1.25 mg) was “all treated subjects”, the “participants with ≥2 relative fold increase in ISG15 expression from baseline in the first 96 hours” value (single dose 1.25 mg fasted) was 8 (100%) n (%) and the “participants with ≥2 relative fold increase in MX1 expression from baseline in the first 96 hours” value (single dose 1.25 mg fasted) was 8 (100%) n (%). For the same compound, the “participants with ≥2 relative fold increase in OAS1 expression from baseline in the first 96 hours” value (single dose 1.25 mg fasted) was 8 (100%) n (%), the “subjects with IFN-α levels 100 pg/mL coinciding with flu-like AEs and low lymphocytes” value (single dose 1.25 mg fasted) was 3 of 8 and the “subjects with ≥2-fold change from baseline in GCSF within 96 hours” value (single dose 1.25 mg fasted) was 1 (12.5%) n (%). The “subjects with ≥2-fold change from baseline in GMCSF within 96 hours” value (single dose 1.25 mg fasted) was 0 n (%), the “subjects with ≥2-fold change from baseline in IFN-γ within 96 hours” value (single dose 1.25 mg fasted) was 2 (25.0%) n (%) and the “subjects with ≥2-fold change from baseline in IL-1β within 96 hours” value (single dose 1.25 mg fasted) was 0 n (%). The “subjects with ≥2-fold change from baseline in IL-6 within 96 hours” value (single dose 1.25 mg fasted) was 1 (12.5%) n (%), the “subjects with ≥2-fold change from baseline in IL-8 within 96 hours” value (single dose 1.25 mg fasted) was 0 n (%) and the “subjects with ≥2-fold change from baseline in IL-10 within 96 hours” value (single dose 1.25 mg fasted) was 0 n (%). The “subjects with ≥2-fold change from baseline in IL-12 subunit P40 within 96 hours” value (single dose 1.25 mg fasted) was 0 n (%), the “subjects with ≥2-fold change from baseline in MIP-1β within 96 hours” value (single dose 1.25 mg fasted) was 0 n (%) and the “subjects with ≥2-fold change from baseline in TNF-α within 96 hours” value (single dose 1.25 mg fasted) was 0 n (%). For the same compound, the “treated females with 2-fold increase in IFN-α” value (single dose 1.25 mg fasted) was 2 of the 3, the “treated male subjects with 2-fold increase in IFN-α” value (single dose 1.25 mg fasted) was 2 out of 5 and the “IFNα levels in subjects with increase, range” value (single dose 1.25 mg fasted, 4/8 subjects) was 63 to 533 pg/mL. For the same compound, the “increase in IFN-α in the fed state among the 3 subjects with increase in the fasted state” value (single dose 1.25 mg fed) was “none showed an increase in IFN-α in the fed state”, the “treated male subjects with ≥2-fold increase in IFN-α” value (single dose 1.8 mg) was 1 of the 5 and the “treated subjects with ≥2-fold increase” value (single dose 1.8 mg) was “all treated subjects”. The “participants with ≥2 relative fold increase in ISG15 expression from baseline in the first 96 hours” value (single dose 1.8 mg fasted) was 6 (100%) n (%), the “participants with ≥2 relative fold increase in MX1 expression from baseline in the first 96 hours” value (single dose 1.8 mg fasted) was 6 (100%) n (%) and the “participants with ≥2 relative fold increase in OAS1 expression from baseline in the first 96 hours” value (single dose 1.8 mg fasted) was 6 (100%) n (%). The “subjects with IFN-α levels 100 pg/mL coinciding with flu-like AEs and low lymphocytes” value (single dose 1.8 mg fasted) was 2 of 6, the “subjects with ≥2-fold change from baseline in GCSF within 96 hours” value (single dose 1.8 mg fasted) was 0 n (%) and the “subjects with ≥2-fold change from baseline in GMCSF within 96 hours” value (single dose 1.8 mg fasted) was 0 n (%). The “subjects with ≥2-fold change from baseline in IFN-γ within 96 hours” value (single dose 1.8 mg fasted) was 2 (33.3%) n (%), the “subjects with ≥2-fold change from baseline in IL-1β within 96 hours” value (single dose 1.8 mg fasted) was 0 n (%) and the “subjects with ≥2-fold change from baseline in IL-6 within 96 hours” value (single dose 1.8 mg fasted) was 1 (16.7%) n (%). For the same compound, the “subjects with ≥2-fold change from baseline in IL-8 within 96 hours” value (single dose 1.8 mg fasted) was 0 n (%), the “subjects with ≥2-fold change from baseline in IL-10 within 96 hours” value (single dose 1.8 mg fasted) was 0 n (%) and the “subjects with ≥2-fold change from baseline in IL-12 subunit P40 within 96 hours” value (single dose 1.8 mg fasted) was 0 n (%). For the same compound, the “subjects with ≥2-fold change from baseline in MIP-1β within 96 hours” value (single dose 1.8 mg fasted) was 0 n (%), the “subjects with ≥2-fold change from baseline in TNF-α within 96 hours” value (single dose 1.8 mg fasted) was 0 n (%) and the “time within which cytokine levels and ISG expression returned to baseline” value (single dose, post-administration) was 48 to 96 h. The “time of return to baseline after dosing” value (two highest fasted dose groups) was “approximately 96 hours”.
